Laboratory results: the NIST ThermoML archive (doi:10.1016/j.tca.2015.06.017)
± gives the expanded uncertainty stated by the source.

Test: xn = mol fraction of the nth substance listed
Settings: Liquid, Vibrating tube method

CCC(C)Cl (configuration not stated) [2-chlorobutane] + CCCCCCC
mass density [kg/m3]
Settings | 293.15 K | 298.15 K
100 kPa, x2 = 0.0524 | – | 853.5 ± 0.24
100 kPa, x2 = 0.1018 | – | 841 ± 0.24
100 kPa, x2 = 0.1968 | – | 818.39 ± 0.24
100 kPa, x2 = 0.3006 | – | 795.55 ± 0.24
100 kPa, x2 = 0.4029 | – | 774.75 ± 0.24
100 kPa, x2 = 0.5017 | – | 756.09 ± 0.24
100 kPa, x2 = 0.6008 | – | 738.72 ± 0.25
100 kPa, x2 = 0.7023 | – | 722.14 ± 0.25
100 kPa, x2 = 0.7977 | – | 707.68 ± 0.25
100 kPa, x2 = 0.8986 | – | 693.37 ± 0.25
100 kPa, x2 = 0.952 | – | 686.19 ± 0.25
2000 kPa, x2 = 0.0524 | – | 855.76 ± 0.25
2000 kPa, x2 = 0.1018 | – | 843.26 ± 0.25
2000 kPa, x2 = 0.1968 | – | 820.66 ± 0.25
2000 kPa, x2 = 0.3006 | – | 797.76 ± 0.26
2000 kPa, x2 = 0.4029 | – | 776.96 ± 0.26
2000 kPa, x2 = 0.5017 | – | 758.28 ± 0.26
2000 kPa, x2 = 0.6008 | – | 740.85 ± 0.26
2000 kPa, x2 = 0.7023 | – | 724.29 ± 0.27
2000 kPa, x2 = 0.7977 | – | 709.77 ± 0.27
2000 kPa, x2 = 0.8986 | – | 695.44 ± 0.27
2000 kPa, x2 = 0.952 | – | 688.29 ± 0.27
5000 kPa, x2 = 0.0524 | – | 859.07 ± 0.26
5000 kPa, x2 = 0.1018 | – | 846.59 ± 0.27
5000 kPa, x2 = 0.1968 | – | 823.96 ± 0.27
5000 kPa, x2 = 0.3006 | – | 800.99 ± 0.28
5000 kPa, x2 = 0.4029 | – | 780.1 ± 0.28
5000 kPa, x2 = 0.5017 | – | 761.4 ± 0.29
5000 kPa, x2 = 0.6008 | – | 743.93 ± 0.29
5000 kPa, x2 = 0.7023 | – | 727.26 ± 0.3
5000 kPa, x2 = 0.7977 | – | 712.67 ± 0.3
5000 kPa, x2 = 0.8986 | – | 698.28 ± 0.3
5000 kPa, x2 = 0.952 | – | 691.09 ± 0.31
7000 kPa, x2 = 0.0524 | – | 861.28 ± 0.27
7000 kPa, x2 = 0.1018 | – | 848.7 ± 0.28
7000 kPa, x2 = 0.1968 | – | 826.06 ± 0.29
7000 kPa, x2 = 0.3006 | – | 803.03 ± 0.29
7000 kPa, x2 = 0.4029 | – | 782.16 ± 0.3
7000 kPa, x2 = 0.5017 | – | 763.43 ± 0.3
7000 kPa, x2 = 0.6008 | – | 745.91 ± 0.31
7000 kPa, x2 = 0.7023 | – | 729.24 ± 0.32
7000 kPa, x2 = 0.7977 | – | 714.61 ± 0.32
7000 kPa, x2 = 0.8986 | – | 700.19 ± 0.33
7000 kPa, x2 = 0.952 | – | 692.99 ± 0.33
10000 kPa, x2 = 0.0524 | – | 864.5 ± 0.29
10000 kPa, x2 = 0.1018 | – | 851.96 ± 0.29
10000 kPa, x2 = 0.1968 | – | 829.21 ± 0.3
10000 kPa, x2 = 0.3006 | – | 806.14 ± 0.31
10000 kPa, x2 = 0.4029 | – | 785.11 ± 0.32
10000 kPa, x2 = 0.5017 | – | 766.31 ± 0.33
10000 kPa, x2 = 0.6008 | – | 748.74 ± 0.34
10000 kPa, x2 = 0.7023 | – | 731.99 ± 0.35
10000 kPa, x2 = 0.7977 | – | 717.31 ± 0.35
10000 kPa, x2 = 0.8986 | – | 702.79 ± 0.36
10000 kPa, x2 = 0.952 | – | 695.56 ± 0.36
20000 kPa, x2 = 0.0524 | – | 874.44 ± 0.33
20000 kPa, x2 = 0.1018 | – | 861.8 ± 0.34
20000 kPa, x2 = 0.1968 | – | 838.93 ± 0.36
20000 kPa, x2 = 0.3006 | – | 815.63 ± 0.38
20000 kPa, x2 = 0.4029 | – | 794.49 ± 0.4
20000 kPa, x2 = 0.5017 | 779.78 ± 0.41 | 775.52 ± 0.41
20000 kPa, x2 = 0.6008 | 761.93 ± 0.42 | 757.79 ± 0.43
20000 kPa, x2 = 0.7023 | 744.92 ± 0.44 | 740.82 ± 0.44
20000 kPa, x2 = 0.7977 | 730 ± 0.45 | 726.04 ± 0.45
20000 kPa, x2 = 0.8986 | 715.31 ± 0.46 | 711.31 ± 0.47
20000 kPa, x2 = 0.952 | 707.96 ± 0.47 | 704.04 ± 0.47
30000 kPa, x2 = 0.0524 | 888.05 ± 0.36 | 883.44 ± 0.37
30000 kPa, x2 = 0.1018 | 875.23 ± 0.38 | 870.7 ± 0.38
30000 kPa, x2 = 0.1968 | 852.05 ± 0.41 | 847.61 ± 0.41
30000 kPa, x2 = 0.3006 | 828.48 ± 0.43 | 824.28 ± 0.44
30000 kPa, x2 = 0.4029 | 807.16 ± 0.46 | 802.95 ± 0.47
30000 kPa, x2 = 0.5017 | 787.91 ± 0.48 | 783.76 ± 0.49
30000 kPa, x2 = 0.6008 | 769.94 ± 0.51 | 765.87 ± 0.51
30000 kPa, x2 = 0.7023 | 752.73 ± 0.53 | 748.83 ± 0.53
30000 kPa, x2 = 0.7977 | 737.68 ± 0.55 | 733.86 ± 0.55
30000 kPa, x2 = 0.8986 | 722.85 ± 0.56 | 719 ± 0.57
30000 kPa, x2 = 0.952 | 715.45 ± 0.57 | 711.62 ± 0.58
40000 kPa, x2 = 0.0524 | 896.17 ± 0.39 | 891.7 ± 0.4
40000 kPa, x2 = 0.1018 | 883.24 ± 0.41 | 878.82 ± 0.42
40000 kPa, x2 = 0.1968 | 859.99 ± 0.45 | 855.64 ± 0.46
40000 kPa, x2 = 0.3006 | 836.22 ± 0.49 | 832.09 ± 0.5
40000 kPa, x2 = 0.4029 | 814.71 ± 0.52 | 810.61 ± 0.53
40000 kPa, x2 = 0.5017 | 795.32 ± 0.55 | 791.32 ± 0.56
40000 kPa, x2 = 0.6008 | 777.21 ± 0.58 | 773.3 ± 0.59
40000 kPa, x2 = 0.7023 | 759.89 ± 0.61 | 756.08 ± 0.62
40000 kPa, x2 = 0.7977 | 744.68 ± 0.64 | 741.01 ± 0.64
40000 kPa, x2 = 0.8986 | 729.72 ± 0.66 | 726.09 ± 0.67
40000 kPa, x2 = 0.952 | 722.25 ± 0.67 | 718.59 ± 0.68
50000 kPa, x2 = 0.0524 | 903.66 ± 0.42 | 899.36 ± 0.43
50000 kPa, x2 = 0.1018 | 890.68 ± 0.45 | 886.42 ± 0.45
50000 kPa, x2 = 0.1968 | 867.25 ± 0.49 | 863 ± 0.5
50000 kPa, x2 = 0.3006 | 843.41 ± 0.54 | 839.43 ± 0.55
50000 kPa, x2 = 0.4029 | 821.7 ± 0.58 | 817.84 ± 0.59
50000 kPa, x2 = 0.5017 | 802.25 ± 0.62 | 798.42 ± 0.63
50000 kPa, x2 = 0.6008 | 784.01 ± 0.66 | 780.24 ± 0.66
50000 kPa, x2 = 0.7023 | 766.55 ± 0.69 | 762.91 ± 0.7
50000 kPa, x2 = 0.7977 | 751.26 ± 0.72 | 747.7 ± 0.73
50000 kPa, x2 = 0.8986 | 736.16 ± 0.75 | 732.64 ± 0.76
50000 kPa, x2 = 0.952 | 728.63 ± 0.77 | 725.09 ± 0.77
60000 kPa, x2 = 0.0524 | 910.6 ± 0.44 | 906.5 ± 0.45
60000 kPa, x2 = 0.1018 | 897.63 ± 0.47 | 893.49 ± 0.48
60000 kPa, x2 = 0.1968 | 874.05 ± 0.53 | 870.05 ± 0.54
60000 kPa, x2 = 0.3006 | 850.18 ± 0.58 | 846.26 ± 0.59
60000 kPa, x2 = 0.4029 | 828.39 ± 0.63 | 824.58 ± 0.64
60000 kPa, x2 = 0.5017 | 808.8 ± 0.68 | 805.08 ± 0.69
60000 kPa, x2 = 0.6008 | 790.44 ± 0.72 | 786.84 ± 0.73
60000 kPa, x2 = 0.7023 | 772.89 ± 0.77 | 769.41 ± 0.77
60000 kPa, x2 = 0.7977 | 757.51 ± 0.8 | 754.11 ± 0.81
60000 kPa, x2 = 0.8986 | 742.26 ± 0.84 | 738.96 ± 0.85
60000 kPa, x2 = 0.952 | 734.67 ± 0.86 | 731.32 ± 0.87
65000 kPa, x2 = 0.0524 | 913.94 ± 0.45 | 909.89 ± 0.46
65000 kPa, x2 = 0.1018 | 900.93 ± 0.48 | 896.87 ± 0.49
65000 kPa, x2 = 0.1968 | 877.31 ± 0.54 | 873.4 ± 0.55
65000 kPa, x2 = 0.3006 | 853.35 ± 0.6 | 849.57 ± 0.61
65000 kPa, x2 = 0.4029 | 831.52 ± 0.66 | 827.86 ± 0.67
65000 kPa, x2 = 0.5017 | 811.84 ± 0.71 | 808.29 ± 0.72
65000 kPa, x2 = 0.6008 | 793.41 ± 0.76 | 789.99 ± 0.77
65000 kPa, x2 = 0.7023 | 775.8 ± 0.8 | 772.52 ± 0.81
65000 kPa, x2 = 0.7977 | 760.33 ± 0.84 | 757.18 ± 0.85
65000 kPa, x2 = 0.8986 | 745.06 ± 0.88 | 741.94 ± 0.89
65000 kPa, x2 = 0.952 | 737.4 ± 0.9 | 734.28 ± 0.91
